The target of assay [1] is T1, Tryptase (Homo sapiens, UniProt Q15661). Briefly: In Vitro Tryptase Inhibition Assay (hydrolysis of tosyl-GlyProLys-p-nitroanilide, Tris-HCl pH 8.2). Format: biochemical. As to the method: Table II lists the inhibition constants (Ki ', micromolar (μM)) which were determined for several of the compounds of the present invention, wherein R^1 is hydrogen; R^2 is hydrogen; R^3 is --(CH2)3 --NH--(C=NH)--NH2; R^4 and R^5, together with the nitrogen and carbon to which they are attached form a five-membered heterocycle; and R^6 is hydrogen. […] Unlike Ki, Ki ' may not be a true dissociation constant of the enzyme-inhibitor complex; Ki ' is equal to Ki for a noncompetitive inhibitor and is directly proportional to Ki for competitive and uncompetitive inhibitors.
T1 sequence (Q15661 31-275): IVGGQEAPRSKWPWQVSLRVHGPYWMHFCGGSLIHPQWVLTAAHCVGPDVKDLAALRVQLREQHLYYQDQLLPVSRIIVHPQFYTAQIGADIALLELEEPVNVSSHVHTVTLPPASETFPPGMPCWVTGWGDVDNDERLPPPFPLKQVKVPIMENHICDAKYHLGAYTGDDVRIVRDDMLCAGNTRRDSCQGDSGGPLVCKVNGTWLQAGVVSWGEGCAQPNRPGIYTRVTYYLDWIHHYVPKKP
Generally, the assay conditions are light sensitive and variations in ambient light intensity may affect assay reproducibility. As a result of this potential source of error, some assays were run under dark conditions. The Ki 's reported in Tables II and III without parentheses were determined under conditions of ambient light. Ki 's reported with parentheses were determined under "dark" conditions as defined above.

Assay [2] addresses T1, Tryptase. Briefly: biochemical. The note with it: for Ki: Table IV. As to the method:
Compounds (approx. 1 mg) to be assayed against tryptase were reconstituted in dimethylsulfoxide (DMSO) and diluted 1:10 into buffer containing 50 millimolar (mM) Tris-HCl at pH 8.2, and containing 100 mM NaCl, 0.05% Tween-20. Seven additional 3-fold dilutions were made from the initial dilution into the same buffer supplemented with 10% DMSO. Aliquots (50 μl) from each of the eight dilutions in the series were transferred to individual wells in a 96-well U-bottom microtiter plate. Tryptase (25 μl; 0.5 nM final concentration) was added to each well and the samples were mixed and incubated for 1 hr at room temperature under either ambient light (i.e., the light available in the room during the experiment) or under controlled "light" or "dark" conditions. "Light conditions" refers herein to a light intensity of 400-450 footcandles from a fluorescent bulb. "Dark" refers herein to sample containers wrapped in aluminum foil. The enzyme reaction was then initiated with the addition of the synthetic tripeptide substrate, tosyl-GlyProLys-p-nitroanilide (25 μl; 0.5 mM final concentration). The microtiter plates were immediately transferred to a UV/MAX Kinetic Microplate Reader (Molecular Devices) and hydrolysis of the chromogenic substrate was followed spectrophotometrically at […] for 5 minutes. […] Initial velocity measurements, calculated from progress curves by a kinetic analysis program called "BatchKi" (available commercially from Biokin Ltd., of Madison Wis.), were used to determine apparent inhibition constants for each inhibitor. This program is designed to perform regressions and curve-fitting of non-linear data.
Compound 3 was assayed against tryptase at four different pH's in the following buffer system: 120 mM NaCl, 2.7 mM KCl, 0.13 mM NaH2 PO4, 0.896 mM Na2 HPO4. The final buffer system used included 0.05% of Tween-20.
Thus, the assay procedure described above was performed wherein the dilution of Compound 3 and the addition of tryptase was done under ambient light at room temperature (22°-26° C.). The assay plate was wrapped in aluminum foil for a 1-hr incubation before substrate addition, which was also done under ambient light.

Assay [3] has as its system allergic sheep. Briefly: Allergic sheep model of asthma: specific lung resistance (SRL) after antigen challenge. In kind it is in vivo. The note with it: 9 mg aerosol 0.5 h before, 4 h and 24 h after antigen challenge. The procedure:
(§1) The initial asthmatic response can be evaluated in guinea pigs, and dogs, and particularly, with a basenji-greyhound cross strain which develops nonspecific airway hyperresponsiveness to numerous nonallergenic substances, such as methacholine and citric acid. […] In dual responding animals, the initial asthmatic response (IAR) is followed by a late asthmatic response (LAR) at 6-8 hours post-exposure.
(§2) The allergic sheep model was used to evaluate the potential antiasthmatic effects of the compounds of the present invention.
(§3) The allergic sheep model of asthma was employed in these studies. These methods have been published previously (see Abraham et al. (1983) Am. Rev. Respir. Dis. 128:839-844; Allegra et al. (1983) J. Appl. Physiol. 55:726-730; Russi et al. (1985) J. Appl. Physiol. 59:1416-1422; Soler et al. ((1989) J. Appl. Physiol. 67:406-413. Each sheep served as its own control. Body weights for these animals ranged from 20-50 kilograms.
(§4) In these studies, 9 mg of Compound 3 of Tables I and II was dissolved in 3 mL buffered saline and the total solution delivered as an aerosol 0.5 hours before, 4 hours after, and 24 hours after antigen challenge (total dose=27; n=6). In the control (vehicle only) trial, antigen challenge caused peak early and late increases above baseline in specific lung resistance (SRL) of 374±104% and 212±21% (mean±SE). In contrast, when the sheep were treated with Compound 3 of Tables I and II, the early and late increases in SRL were 280±39% and 72±9% (p <0.05 vs. control, Wilcoxon signed rank test). The peak early response was taken as the average of the maximum values occurring immediately post-challenge. Peak late responses were calculated by averaging the maximum response values obtained for each animal within the 6-8 hour time period. This approach is conservative and eliminates the possible reduction in the late response due simply to averaging.

Assay [4] deals with allergic sheep. Description: Allergic sheep model: airway hyperresponsiveness to carbachol (PC400) 24 hours after antigen challenge. In kind it is in vivo. The procedure:
as §1, §2, §3, §4
Twenty-four hours after antigen challenge in both the control and drug trial, the sheep developed airway hyperresponsiveness. […] Baseline PC400 was 22.0±3.7 breath units in the control trial, falling to 9.1±1.3 breath units after antigen challenge (p<0.05 vs. baseline).

[5] abbreviates: Table II, ambient light (no parentheses).
The mark [6] stands for this setting: Table II, asterisk: "light" conditions, 400-450 footcandles.
Setting [7] is: Table II, parentheses: "dark" conditions (aluminum foil).
Setting [8] is: Table III, asterisk: "light" conditions, 400-450 footcandles.
The mark [9] stands for this setting: Table III, parentheses: "dark" conditions (aluminum foil).

Some results are limits rather than exact numbers.

Usually Ki stands for the equilibrium dissociation constant of an inhibitor or competing ligand from its target. Regarding `N=C(N)NCCC[C@H](NC(=O)c1c(O)ccc2ccccc12)C(=O)N1CCC[C@H]1C(N)=O` [Compound 15], the Ki on Tryptase [1] (setting [5]) amounted to 0.84 µM.

On to `N=C(N)NCCC[C@H](NC(=O)c1ncccc1O)C(=O)N1CCC[C@H]1C(N)=O` [Compound 16], for which the inhibition constant (Ki) at Tryptase [1] (setting [6]) is 8 µM; at Tryptase [1] (setting [7]), 63 µM.

On to `N=C(N)NCCC[C@H](NC(=O)c1nc2ccccc2nc1O)C(=O)N1CCC[C@H]1C(N)=O` [Compound 9], for which the figures for the inhibitory constant (Ki) on Tryptase [1] (setting [6]) and on Tryptase [1] (setting [7]) were 23 µM and 56 µM, respectively.

Consider `N=C(N)NCCC[C@H](NC(=O)c1ccc2ccccc2c1O)C(=O)N1CCC[C@H]1C(=O)N[C@@H](Cc1ccccc1)C(N)=O` [Compound 13], for which the Ki on Tryptase [1] (setting [6]) worked out at 0.6 µM; at Tryptase [1] (setting [7]), 110 µM.

For the molecule `Cc1ccc2c(O)c(C(=O)N[C@@H](CCCNC(=N)N)C(=O)N3CCC[C@H]3C(N)=O)cnc2n1` [Compound 17], the Ki on Tryptase [1] (setting [5]) is 900 µM.

On to `N=C(N)NCCC[C@H](NC(=O)c1ccc2ccccc2c1O)C(=O)N1CCC[C@H]1C(=O)N1CCCC(C(N)=O)C1` (stereo partly shown) [Compound 6], for which, on Tryptase [1] (setting [5]), the Ki worked out at 82 µM.

For the molecule `N=C(N)NCCC[C@H](NC(=O)c1ccc2ccccc2c1O)C(=O)N1C[C@H](O)C[C@H]1C(N)=O` [Compound 11], the figures for the Ki on Tryptase [1] (setting [8]) and at Tryptase [1] (setting [9]) were 0.3 µM and 40 µM, respectively.

`N=C(N)NCCC[C@H](NC(=O)c1cccnc1O)C(=O)N1CCC[C@H]1C(N)=O` [Compound 18]: at Tryptase [1] (setting [5]), the Ki stood at 452 µM.

Take `N=C(N)NCCC[C@H](NC(=O)c1cc(-c2ccccc2)ccc1O)C(=O)N1CCC[C@H]1C(N)=O` [Compound 21]: the inhibition constant (Ki) on Tryptase [1] (setting [6]) amounted to 18 µM; on Tryptase [1] (setting [7]), 149 µM.

`N=C(N)Nc1ccc(C[C@H](NC(=O)c2ccc3ccccc3c2O)C(=O)N2CCC[C@H]2C(N)=O)cc1` [Compound 10]: the values for the inhibitory constant (Ki) at Tryptase [1] (setting [8]) and at Tryptase [1] (setting [9]) were 2.5 µM and 18 µM, respectively.

On to `N=C(N)NCCC[C@H](NC(=O)c1ccccc1O)C(=O)N1CCC[C@H]1C(N)=O` [Compound 19], for which the inhibition constant (Ki) on Tryptase [1] (setting [6]) was determined as 8 µM; at Tryptase [1] (setting [7]), 2450 µM.

Consider `N=C(N)NCCC[C@H](NC(=O)c1ccc2ccccc2c1O)C(=O)N1CCC[C@H]1C(N)=O` [Compound 3, 1-hydroxy-2-naphthoyl-L-arginyl-L-proline amide], for which the Ki at Tryptase [1] (setting [6]) turned out to be 0.3 µM; on Tryptase [1] (setting [7]), 82 µM; on Tryptase [2] (pH 6.5) it was 14 µM; at Tryptase [2] (pH 7.0), 8 µM; on Tryptase [2] (pH 7.5), 5.4 µM; at Tryptase [2] (pH 8.0) it was 6.1 µM. The “sensitivity to light in the buffer system” value at Tryptase [2] (120 mM NaCl, 2.7 mM KCl, 0.13 mM NaH2PO4, 0.896 mM Na2HPO4, 0.05% Tween-20, pH 7.5) is given as “less sensitive to light”. For the same molecule, the “effect on early response” value in the assay on allergic sheep [3] was “exhibited a tendency to reduce the early response”. Moreover, the “effect on late response” value in the assay with allergic sheep [3] (FIG. 1) is reported as “attenuated the late response”. Moreover, in the assay on allergic sheep [3] (n=6, mean±SE, control 212±21%, p <0.05 vs. control), the “late increase in SRL (peak late response above baseline, 6-8 hours)” value is 72±9%. Moreover, the “early increase in SRL (peak early response above baseline)” value with allergic sheep [3] (n=6, mean±SE, control 374±104%) is recorded as 280±39%. For the same molecule, the “effect on 24 hour hyperresponsiveness” value in the assay with allergic sheep [4] (24 h after antigen challenge, FIG. 2) was “blocked the 24 hour hyperresponsiveness”. Also, the “PC400, after antigen challenge” value in the assay on allergic sheep [4] (drug trial, 24 h after antigen challenge, control 9.1±1.3) amounted to 17.6±3.5 breath units. Moreover, the “PC400 change relative to baseline” value in the assay with allergic sheep [4] (drug trial, after antigen challenge vs. baseline) is recorded as “unchanged relative to baseline”. Also, the “PC400, baseline” value with allergic sheep [4] (drug trial, baseline (before antigen challenge), control baseline 22.0±3.7) is reported as 16.0±3.8 breath units. Moreover, in the assay with allergic sheep [4] (treatment with Compound 3, allergen challenged sheep), the “airway function in allergen challenged sheep” value is “statistically significant improvement in airway function”.

As for `N=C(N)NCCC[C@H](NC(=O)c1ccc2ccccc2c1O)C(=O)N1CCC[C@@H]1C(N)=O` [Compound 12], the inhibitory constant (Ki) on Tryptase [1] (setting [8]) came to 2.5 µM; on Tryptase [1] (setting [9]) it was 818 µM.

On to `N=C(N)NCCC[C@H](NC(=O)c1cc(O)ccc1O)C(=O)N1CCC[C@H]1C(N)=O` [Compound 20], for which the Ki at Tryptase [1] (setting [5]) is 20 µM.

Take `CN(C)C(=O)[C@@H]1CCCN1C(=O)[C@H](CCCNC(=N)N)NC(=O)c1c(O)ccc2ccccc12` [Compound 5]: the inhibitory constant (Ki) on Tryptase [1] (setting [5]) was 15 µM.

Turning to `COC(=O)[C@@H]1CCCN1C(=O)[C@H](CCCNC(=N)N)NC(=O)c1c(O)ccc2ccccc12` [Compound 8], the Ki at Tryptase [1] (setting [5]) worked out at 208 µM.

As to `COC(=O)[C@@H]1C[C@@H](O)CN1C(=O)[C@H](CCCNC(=N)N)NC(=O)c1c(O)ccc2ccccc12` [Compound 4], the Ki at Tryptase [1] (Table III, ambient light (no parentheses)) came out at 749 µM.

On to `CN(CC(N)=O)C(=O)[C@H](CCCNC(=N)N)NC(=O)c1c(O)ccc2ccccc12` [Compound 1], for which the Ki at Tryptase [1] (setting [8]) turned out to be 3 µM; on Tryptase [1] (setting [9]) it was 637 µM.

As to `Cc1ccc(C(=O)N[C@@H](CCCNC(=N)N)C(=O)N2CCC[C@H]2C(N)=O)c(O)c1` [Compound 2], the inhibition constant Ki on Tryptase [1] (setting [5]) is more than 500 µM.

For the molecule `N=C(N)NCCC[C@H](NC(=O)c1cc2ccccc2cc1O)C(=O)N1CCC[C@H]1C(N)=O` [Compound 14], the Ki on Tryptase [1] (setting [6]) amounted to 752 µM; on Tryptase [1] (setting [7]), 707 µM.

As for `N=C(N)NCCC[C@H](NC(=O)c1ccc2ccccc2c1O)C(=O)N1CCC[C@H]1C(=O)N1CCC(C(N)=O)CC1` [Compound 7], the inhibition constant Ki at Tryptase [1] (setting [5]) stood at 664 µM.

Values taken from patent US5525623A, “Compositions and methods for the treatment of immunomediated inflammatory disorders” (Arris Pharmaceutical Corporation, priority 1994, dated 1996).
